Results reported in patent US5482930A, “Anti-inflammatory composition and method with des-Tyr dynorphin and analogues” (The Regents of the University of California, priority 1993, dated 1996).
Counter-ions that a name gives are not always drawn. Residues, ends and D or L forms follow the SMILES beside them.

Tests used:
[1] = Direct comparison of dynorphin A analogs with an amide or a carboxyl C-terminus (ED50, bioassay not given); type: in vivo; details: i.v.; amide versus carboxyl C-terminus
Procedure: Similar results were obtained for D-Ala^2 -dynorphin A (1-17) amide, with an ED50 value of 0.5 mg/kg i.v. versus a value of 1.0 mg/kg i.v. for D-Ala^2 -dynorphin A (1-17).

neurogenic inflammation = details: intravenous route; relative to saline-injected controls; cited from earlier work
[2] = system: thermal edema of the hind paw; experiment: Heat-induced swelling and edema of the rat hind paw (58° C. water, one minute); type: in vivo; details: for ED50, reducing thermal edema: i.v., anesthetized rat, hind paw 58° C. water one minute; for anti-inflammatory effect (FIG. 1): FIG. 1 legend
Procedure: In one bioassay, dynorphin A (2-17), synthesized by standard solid phase methods, was dissolved in sterile saline and injected intravenously via a branch of the femoral vein at various doses into an anesthetized rat. Ten minutes later a hind paw was immersed in 58° C. water for one minute. Thirty minutes after exposure to heat, the paw was removed at the ankle joint and weighed. The percent increase in weight of the heated paw relative to the unheated paw was taken as the index of inflammatory thermal edema. The general principles of this method have been discussed by Wei and Thomas, Ann. Rev. of Pharmacol. and Toxicol., 33, pp. 91-108 (1993).
Anesthetized rats were injected intravenously (i.v.) with saline (1 ml/kg) or naloxone hydrochloride ([…]) 5 minutes prior to i.v. injection with saline ([…]), dynorphin A (2-17) (0.5 mg/kg), or N-acetyldynorphin A (6-12 )-amide (3 mg/kg). Ten minutes after the second injection, the rat's hind paw was immersed in 58° C. water for one minute and 30 minutes later the animals were euthanized and the heated and unheated paw weights were measured. After saline/saline or naloxone HCl/saline, the percent increase in the weight of the heated paw, relative to the unheated paw, were 104±10% and 98±9%, respectively. The percent increases for the saline/dynorphin A (2-17) and naloxone HCl/dynorphin A (2-17) groups were 26±6% and 26±5%, respectively. The percent increases for the saline/N-acetyl-dynorphin A (6-12) amide and naloxone HCl/N-acetyl-dynorphin A (6-12) amide groups were 21±3% and 27±12%, respectively.

[3] = Blood pressure and oxygenation after i.v. dose; type: in vivo, rat; details: 0.2 mg/kg i.v.
[4] = system: edema in the anesthetized rat's paw after thermal injury; details: 3.75 mg/kg administered intravenously; cited from earlier work

D-Ala^2 -dynorphin A (1-17)
ED50 [1]: 1.0 mg/kg

dynorphin A (1-10) amide
median effective dose (ED50) producing 50% inhibition of dye leakage (neurogenic inflammation): 5.0 (3.5-7.2) mg/kg

CC[C@H](C)[C@H](NC(=O)[C@H](CCCNC(=N)N)NC(=O)[C@H](CCCNC(=N)N)NC(C)=O)C(=O)N[C@@H](CCCNC(=N)N)C(=O)N1CCC[C@H]1C(=O)N[C@@H](CCCCN)C(=O)N[C@H](CC(C)C)C(N)=O [Embodiment NO:4, Ac-R-R-I-R-P-K-l-NH2] (HELM PEPTIDE1{[ac].R.R.I.R.P.K.[dL].[am]}$$$$V2.0)
ED50, reducing thermal edema [2]: 2.2 (1.2-4.1) mg/kg

CC[C@H](C)[C@H](NC(=O)[C@H](CCCNC(=N)N)NC(=O)[C@H](CCCNC(=N)N)NC(=O)[C@H](CC(C)C)NC(=O)[C@H](Cc1ccccc1)NC(=O)CNC(=O)CN)C(=O)N[C@@H](CCCNC(=N)N)C(=O)N1CCC[C@H]1C(=O)N[C@@H](CCCCN)C(=O)N[C@@H](CC(C)C)C(=O)N[C@@H](CCCCN)C(=O)N[C@@H](Cc1c[nH]c2ccccc12)C(=O)N[C@@H](CC(=O)O)C(=O)N[C@@H](CC(N)=O)C(=O)N[C@@H](CCC(N)=O)C(=O)O [Embodiment NO:1, G-G-F-L-R-R-I-R-P-K-L-K-W-D-N-Q]
cyanosis / oxygenation [3]: no evidence of cyanosis | effect on blood pressure [3]: slight fall in blood pressure | duration of fall in blood pressure ([3]; then mean arterial pressure returned to baseline): 10 to 15 min

Ac-RRIRPKL-NH2 [Embodiment NO:3, Ac-R-R-I-R-P-K-L-NH2]
ED50, reducing thermal edema [2]: 1.4 (0.6-3.7) mg/kg | percent increase in the weight of the heated paw, relative to the unheated paw ([2]; naloxone HCl pretreatment, then peptide 3 mg/kg i.v.): 27±12% | antagonism of anti-inflammatory effect by naloxone ([2]; peptide 3 mg/kg i.v., naloxone 4 mg/kg i.v.): not antagonized | percent increase in the weight of the heated paw, relative to the unheated paw ([2]; saline pretreatment, then peptide 3 mg/kg i.v.): 21±3%

D-Ala^2 -dynorphin A (2-17)
ED50 [1]: 1.2 mg/kg

D-Ala^2 -dynorphin A (2-17) amide
ED50 [1]: 0.65 mg/kg

dynorphin A (1-13)
median effective dose (ED50) producing 50% inhibition of dye leakage (neurogenic inflammation): 1.9 (1.5-2.4) mg/kg | prevention of edema after thermal injury [4]: prevent edema | anti-inflammatory effect (FIG. 1) [2]: substantially lacking potency | ED50, reducing thermal edema [2]: 3.2 (1.9-5.5) mg/kg

D-Ala^2 -dynorphin A (1-17) amide
ED50 [1]: 0.5 mg/kg

C=CCN1CC[C@]23c4c5ccc(O)c4O[C@H]2C(=O)CC[C@@]3(O)[C@H]1C5 [naloxone HCl, naloxone hydrochloride]
percent increase in the weight of the heated paw, relative to the unheated paw ([2]; naloxone HCl (4 ml/kg) i.v. then saline, no peptide): 98±9%

dynorphin A (1-17)
anti-inflammatory effect (FIG. 1) [2]: substantially lacking potency | ED50, reducing thermal edema [2]: 1.7 (1.2-2.4) mg/kg
